From patent publication US9637529B2, “Medicament for atrophy treatment or increasing cell growth” (SIMU TRADE CONSULTING GMBH & CO. LEASING KG, priority 2012, dated 2017)
Entries after “also recorded” stand apart in the source; their conditions may differ.

Columns and labels:
TF-1 cells = assay: Growth factor deprivation apoptosis, caspase-3 ELISA, TF-1; assay type: cell-based, human; details: serum-free medium with or without GM-CSF, SERF2 5 μg/ml, 9.5 hours
Protocol: TF-1 cells were incubated under different culture conditions: FCS+GM-CSF (dark blue), serum-free medium+GM-CSF (5 μg/ml; pale blue), serum-free medium+GM-CSF+SERF2 (5 μg/ml; lime), serum-free medium+SERF2 (green) and serum-free medium only (red). After 9.5 hours culture supernatants were analyzed by an ELISA-technique for caspase-3 expression levels. Results are expressed as pNA in pmol/μl
Caspase-3 is a member of the cysteine aspartic acid-specific protease family and is a marker of an early event in apoptosis. Caspase-3 expression was measured using a commercially available kit. Briefly, culture supernatants of cells undergoing apoptosis after different treatments were harvested and incubated with a substrate labeled with p-nitroaniline (pNA), which produces a yellow color when it is cleaved by caspase-3. The amount of produced yellow color is proportional to the caspase-3 activity, which can be determined by an ELISA reader at 405 nm (Promega). The assay was performed essentially as described by the manufacturer (instruction manual of CaspACE™ Assay System, Promega).
The question was asked whether SERF2 has an effect on growth factor deprivation- or stress-induced apoptosis. The experimental protocol included addition of Hydrogen peroxide (H2O2), which is known to cause cellular stress and consequently apoptotic death in doses below 200 μM (Cox A., Carcinogenesis. 2007, Vol. 28, 10). […]

zebrafish = assay: Zebrafish heart size / heart volume; assay type: in vivo; details: 7 dpf zebrafish incubated with different doses of SERF2
Protocol: FIG. 13: a: Changes in heart size in 7 dpf old zebrafish incubated with different doses of SERF2. b: Changes in heart volume in 7 dpf old zebrafish incubated in different concentrations of SERF2 and erythropoietin (EPO). Significant differences to control animals are indicated by asterisks.
SERF2 was administered by a) injection of the native protein into the yolk sac of 3 day post fertilization (dpf) animals and freshly fertilized eggs (2-8 cell stage) in various protein concentrations or chronic incubation with the native protein to supply it via diffusion. For in deep analysis of angiogenic effects flk-1 transgenic animals with gfp (green fluorescent protein) labelled endothelium were used. For all other experiments wildtype (wdt) animals were used.
Heart size was determined by measurement of end diastolic dimensions and calculation of end diastolic volume as described by Schwerte et al. (Schwerte et al. The Journal of Experimental Biology. 2003; 206 (Pt 8):1299-1307).

[1] = system: chorionallantoic membrane (CAM); assay: Hen's Egg Test - Chorionallantoic Membrane (HET-CAM) angiogenesis assay; assay type: in vivo, chicken; details: SERF2 3 μg/CAM, VEGF-A 0.5 μg/CAM; treatment on embryonic day 6 and 7; microscopic evaluation, manual count
Protocol: FIG. 12: Proangiogenic effect of SERF2 in CAM assays. To evaluate the pro-angiogenic properties of SERF2, 3 μg of A: PBS and C: SERF2 was applied per CAM. B: VEGF-A (0.5 μg/CAM) was used as positive control, PBS served as a negative control. […] Treatment was performed on embryonic day 6 and 7. Angiogenic responses were evaluated microscopically. Pictures shown were taken for documentation on day 6.
Fertilized specific-pathogen free eggs (White Leghorn) were obtained from BAXTER Biosciences (Vienna, Austria) on embryonic day 5 (E5). Eggs were disinfected on the surface using a towel soaked with Microzid (Schlilke, Austria). A tiny hole was drilled and 3 ml albumen were removed using a syringe equipped with a 18 G needle. Subsequently, the hole was covered with paraffin. To open the eggs, another hole was drilled on top. The egg shell was removed in this area using a pair of tweezers. […] Angiogenic potential of tested peptides was evaluated microscopically at the end of the experiment.
The HET-CAM assay enables the assessment of the angiogenic potential of substrates or cells. A suitable VEGF concentration was determined, which can be used as positive control. […] Angiogenic response was determined on Ell by light microscopy.
To evaluate the pro-angiogenic properties of SERF2, the protein was subjected to Het-CAM assay. […] Angiogenic responses were evaluated microscopically on E7 as well as on E8. […]

Q: Which results are given for “SERF2: Small EDRK-rich factor 2, mature protein of 59 amino acids (SEQ ID NO: 1) (MTRGNQRELARQKNMKKQSDSVKGKRRDDGLSAAARKQRDSEIMQQKQKKANEKKEEPK; homo sapiens)”?
A: apoptosis (caspase-3 levels) in TF-1 cells (TF-1 cells): markedly reduced apoptosis; also recorded: compensates for FCS and alleviates apoptosis; change in heart volume (zebrafish): significant increase of the animals heart volume; angiogenic response (newly formed vessels) in CAM [1]: pro-angiogenic response; also recorded: New vessels were identified
